# Measurements taken from patent US20060074129A1, “Method for obtaining ozonized oils and vegetable fats and use of said products for pharmaceutical and cosmetic purposes” (priority 2002, published 2006).
# Experiments:
# [1] = tested on: Candida albicans; experiment: Clinical study in vulvovaginal candidiasis; type: in vivo; settings: for healing: final vaginal exudate, six days after the last ovule; for time at which symptoms and signs disappeared in a higher percent: in vivo
# Description: Ninety women, 17 to 51 years old, with diagnosis of vulvovaginal candidiasis were studied. Patients were allocated at random in three groups: 30 were treated with ovules containing 10% ozonized theobroma oil, 30 were treated with Nistatine and 30 with Clotrimazole. To all patients, a vaginal exudate was performed at the beginning and at the end of the treatment, six days after the application of the last ovule. Also, an interrogation and a physical test were performed to them. The clinical symptoms of those patients were pruritus, burning and leucorrhea with higher prevalence. […] Taking into account the final exudate, a healing of 97% was obtained for the patients treated with ozonized theobroma oil ovules, 80% for the group treated with Clotrimazole and 50% for the patients treated with Nistatine.
# [2] = tested on: moderate simple periodontitis; experiment: Random, controlled, single-blind phase III clinical trial in moderate simple periodontitis; type: in vivo, human
# Description: In this study, we used ozonized sunflower oil in order to evaluate their effect on the treatment of moderate simple periodontitis and for preventing its recidivation. A random, controlled and single-blind phase III clinical trial was performed in 84 patients, older than 35 years, from both sexes. Ozonized sunflower oil was topically applied to 42 patients on the operated area and on the 7th, 14th and 21st days after operation on the adjacent periodontal tissues. The control group was formed by 42 patients that received the conventional treatment with chlorhexidine (aqueous solution 0.2%). An analytic index of hygiene, clinical and radiographical tests and microbiological controls was applied to the patients, at the beginning, on the 21st , 90th and 180th days and with intervals of 1 month until 9 months after operation. The effectiveness of the treatment after 180 days was considered as: good (satisfactory clinical and microbiological assessments) in 98% of the patients of the group treated with ozonized sunflower oil and in 78% of the control group; fairly good (some of the assessments were not satisfactory) for 2 and 17%, respectively, and in the category of bad (both assessments were not satisfactory) only 5% appears in the control group. Recidivation was more frequent in the control group (15%) than in the group treated with ozonized sunflower oil (5%). In general, the best clinical results (best evolution and healing during the study) and microbiological results were obtained in the group treated with ozonized sunflower oil, and also a lower percent of recidivation was found in that group.
# [3] = tested on: blepharitis; experiment: Clinical study in blepharitis with acute bacterial infection; type: in vivo, human; settings: topical on eyelid border, 7 days
# Description: The sample was constituted by 40 patients suffering from blepharitis, with acute bacterial infection. Twenty patients were treated with topical ozonized sunflower oil, three times a day, by rubbing the border of the eyelid with an applicator soaked with ozonized sunflower oil, during 7 days. The 20 other patients were treated in the same way with gentamycin ointment (0.3%), 4 times a day for 7 days. Healing of 95 and 88% was obtained with ozonized sunflower oil and gentamycin, respectively, with significant differences between both groups.
# [4] = tested on: acute ulcer-necrotizing gingivitis; experiment: Random phase III clinical assay in acute ulcer-necrotizing gingivitis; type: in vivo, human; settings: three times a day for 7 days
# Description: A random phase III clinical assay was performed in a group of 48 patients suffering from acute ulcer-necrotizing gingivitis. From those patients, 24 formed the group with ozonized sunflower oil, by topical applications on the lesions, three times a day, for 7 days. The control group (24 patients) was treated with local applications of aqueous solution of sodium perborate, as rinsings, with similar periodicity to that of the group treated with ozonized sunflower oil. The tests were performed 3 or 7 days after the beginning of the treatments.
compound,measurement,setting,value
Clc1ccccc1C(c1ccccc1)(c1ccccc1)n1ccnc1 [Clotrimazole],healing,[1],80%
same,time at which symptoms and signs disappeared in a higher percent,[1],between the first and the fourth days of treatment
[H]/N=C(\N/C(=N/[H])NCCCCCCNC(=N)NC(=N)Nc1ccc(Cl)cc1)Nc1ccc(Cl)cc1 [chlorhexidine],effectiveness of the treatment considered bad,"[2]; after 180 days, both assessments not satisfactory",5%
same,effectiveness of the treatment considered good,"[2]; after 180 days, satisfactory clinical and microbiological assessments",78%
same,effectiveness of the treatment considered fairly good,"[2]; after 180 days, some of the assessments not satisfactory",17%
same,recidivation,"[2]; human, in vivo",15%
Nistatine,healing,[1],50%
same,time at which symptoms and signs disappeared in a higher percent,[1],between the ninth and twelfth days
gentamycin,healing,[3],88%
sodium perborate,patients healed,[4],29.2%
